PMC5880945, “D-Arg^0-Bradykinin-Arg-Arg, a Latent Vasoactive Bradykinin B2 Receptor Agonist Metabolically Activated by Carboxypeptidases” (Frontiers in Pharmacology, 2018)
Entries after “also recorded” stand apart in the source; their conditions may differ. Square brackets hold non-standard residues; d marks the D form. Peptide text beside a SMILES is read from it.

Columns and labels:
[1] = test system: GFP-tagged rabbit B2R (B2R-GFP); assay: B2R-GFP endocytosis and recycling, epifluorescence microscopy, HEK 293 cells; type: cell-based; settings: 30 min; for B2R-GFP internalization with Plummer’s inhibitor, in words: Plummer’s inhibitor alone
Protocol: This system, based on a serum-containing culture medium, contains ACE and Arg-carboxypeptidase activities ([Bachvarov et al., 2001]; [Charest-Morin et al., 2014]). r-BK or r-BK-RR were added to 35-mm Petri dishes containing the cells with optional pre-treatment with peptidase inhibitors and the cells were observed as described after 30 min of incubation at 37°C ([Charest-Morin et al., 2014]).

[2] = test system: anesthetized rats; assay: In vivo hemodynamics in anesthetized rats, dose-response; set-up: species or system male Sprague-Dawley rats; settings: for hypotensive potency, r-BK vs r-BK-RR, in words: i.v. bolus 0.025–12.8 μg/kg; for heart rate response, in words / peptide doses giving hypotensive response significantly greater than vehicle: i.v. bolus; for heart rate response, in words: after brief bradycardic injection artifact, statistically significant only at the highest tested doses; for peptide doses giving hypotensive response significantly greater than vehicle: vs BSA-saline vehicle (Dunnett’s test)
Protocol: All surgical and experimental procedures were reviewed and approved by the Animal Care and Handling Committee of Laval University, in accordance with the Canadian Council on Animal Care. Experiments were performed on male Sprague-Dawley rats (300–375 g) purchased from Charles River Laboratories (St-Constant, QC, Canada). The rats were housed in a light-controlled (12:12-h light-dark cycle (lights on at 0600)) and temperature-regulated room (22 ± 1°C). Animals had free access to normal chow diet and tap water. They were allowed to acclimate to their environmental conditions for 1 week prior to being studied. At the end of the acclimation period, the rats were anesthetised with sodium pentobarbital (50 mg kg^-1, i.p., supplemented as required) and had one catheter implanted into the right jugular vein [for intravenous (i.v.) injection] and one into the left femoral artery [for direct and continuous measurement of blood pressure and heart rate as previously described ([Jean et al., 2016])]. Experiments started at least 20 min following the end of surgery in anesthetised rats.
Baseline measurements of heart rate and phasic and mean arterial blood pressure were recorded over a period of 15 min in anesthetized rats. A dose response curve was then obtained by recording changes in blood pressure and heart rate elicited by i.v. injection of peptide vehicle followed by increasing doses (0.025–12.8 μg/kg) of r-BK or r-BK-RR. Peptides were dissolved in isotonic saline (0.9% NaCl) containing 0.1% BSA to prevent the adsorption of peptide to the glassware and plastic surfaces. All i.v. injections were given as 100 μl boluses which were washed in with a further 100 μl of saline (the dead space of the catheter). Only one peptide was tested per group of rats and each injection started with saline-BSA 0.1% followed by the lowest dose of peptide. The next dose was administered once all recorded cardiovascular parameters had returned to baseline after the previous injection (usually 2–10 min). At the end of the experiments each animal was euthanized with an overdose of sodium pentobarbital (240 mg/kg, i.v.).
(§1) Results are presented as means ± SEM. Radioligand binding data were fitted by non-linear regression to a one-site competition equation using a least-square method (Prism 5.0, GraphPad Software Inc., San Diego, CA, United States) and IC50 values calculated from this procedure. The same computer program was used to draw concentration-effect curves generated with the contractility assay (least square fitting of sigmoidal dose-response equation with variable slope) and to derive contractile EC50 values. Data describing the dose-response relationship of novel peptides vs. hypotension and heart rate changes, the baseline values of heart rate and mean arterial blood pressure and the effect of drugs on the hemodynamic responses to r-B K and r-BK-RR were assessed by using one-way analysis of variance (ANOVA) followed by the Dunnett’s test (repeated comparison with a common control; Prism 5.0 software).

[3] = molecular target: T1, rat myc-B2R (bradykinin B2 receptor) (Rattus norvegicus, UniProt P25023); assay: [3H]BK binding competition assay; settings: for affinity for rat B2R, in words: rat myc-B2R
T1 construct: expressed in transfected cells
T1 sequence (P25023 1-396): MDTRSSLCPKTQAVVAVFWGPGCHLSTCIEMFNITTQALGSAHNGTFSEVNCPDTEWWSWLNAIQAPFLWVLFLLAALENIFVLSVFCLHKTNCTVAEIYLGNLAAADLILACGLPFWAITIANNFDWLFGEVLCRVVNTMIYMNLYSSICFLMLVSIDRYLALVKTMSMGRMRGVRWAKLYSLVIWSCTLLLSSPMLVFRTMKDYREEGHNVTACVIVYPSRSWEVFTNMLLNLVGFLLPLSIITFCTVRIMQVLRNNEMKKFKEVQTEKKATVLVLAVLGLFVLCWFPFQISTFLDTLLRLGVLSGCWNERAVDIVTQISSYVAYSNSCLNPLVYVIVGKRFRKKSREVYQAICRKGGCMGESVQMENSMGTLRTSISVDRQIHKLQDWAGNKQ
Protocol: Affinity for the B2R was evaluated using a radioligand binding competition assay performed at 0°C in the presence of peptidase inhibitors that included captopril and PMSF ([Charest-Morin et al., 2014]). Briefly, the binding of 3 nM [^3H]bradykinin (Perkin Elmer Life Sciences; 90 Ci/mmol) to adherent intact Human Embryonic Kidney (HEK 293) cells stably expressing the myc-tagged rat B2R construction ([Charest-Morin et al., 2017]) was applied to construct binding competition curves for a series of unlabeled peptides.
as §1

N=C(N)NCCC[C@@H](N)C(=O)N[C@@H](CCCNC(=N)N)C(=O)N1CCC[C@H]1C(=O)N1CCC[C@H]1C(=O)NCC(=O)N[C@@H](Cc1ccccc1)C(=O)N[C@@H](CO)C(=O)N1CCC[C@H]1C(=O)N[C@@H](Cc1ccccc1)C(=O)N[C@@H](CCCNC(=N)N)C(=O)N[C@@H](CCCNC(=N)N)C(=O)N[C@@H](CCCNC(=N)N)C(=O)O [r-BK-RR, D-Arg^0-BK-Arg-Arg] (H-[dR]RPPGFSPFRRR-OH)
B2R-GFP internalization with Plummer’s inhibitor, in words ([1]; 100 nM, 15 min before): only a partial effect
B2R-GFP internalization with enalaprilat + Plummer’s inhibitor, in words ([1]; 100 nM, both inhibitors 15 min before): suppress the effect of r-BK-RR
B2R-GFP internalization with enalaprilat, in words ([1]; 100 nM, enalaprilat alone, 15 min before): suppress the effect of r-BK-RR
hypotensive potency, r-BK vs r-BK-RR, in words [2]: virtually equipotent hypotensive agents
heart rate response, in words [2]: brief tachycardic response, statistically significant only at the highest tested doses
peptide doses giving hypotensive response significantly greater than vehicle [2]: ≥ 0.4 µg/kg
competition on the binding of [3H]BK to B2R, in words ([3]; 100 nM): little competition
affinity for rat B2R, in words ([3]; [3H]BK binding competition): direct micromolar affinity; also recorded: very little direct affinity for B2R
decrease of receptor affinity (less potent) ([3]; r-BK-RR, [3H]BK binding competition, rat B2R): 61 fold

N=C(N)NCCC[C@@H](N)C(=O)N[C@@H](CCCNC(=N)N)C(=O)N1CCC[C@H]1C(=O)N1CCC[C@H]1C(=O)NCC(=O)N[C@@H](Cc1ccccc1)C(=O)N[C@@H](CO)C(=O)N1CCC[C@H]1C(=O)N[C@@H](Cc1ccccc1)C(=O)N[C@@H](CCCNC(=N)N)C(=O)O [r-BK, D-Arg^0-BK] (H-[dR]RPPGFSPFR-OH)
B2R-GFP internalization, in words ([1]; 100 nM, 37°C, serum-containing culture medium, no inhibitor): the fluorescent receptor was internalized
B2R-GFP internalization with Plummer’s inhibitor, in words ([1]; 100 nM, 15 min before): no effect
proportion of cells exhibiting internalization of B2R-GFP ([1]; with enalaprilat and/or Plummer’s inhibitor (not influenced by any)): > 90%
hypotensive potency, r-BK vs r-BK-RR, in words [2]: virtually equipotent hypotensive agents
heart rate response, in words [2]: brief tachycardic response, statistically significant only at the highest tested doses
peptide doses giving hypotensive response significantly greater than vehicle [2]: ≥ 0.4 µg/kg
affinity for rat B2R, in words ([3]; [3H]BK binding competition): practically equal to that of BK
